Laboratory results reported in US8575135B2 (Gilead Sciences, Inc., priority 2011, dated 2013).
Read-outs that look alike come from different tables or passages of the source.

Columns and labels:
[1] = system: 1a Pi-Rluc replicon with Q30R in genotype 1a NS5A; experiment: microbe, parasite or virus in culture; assay type: cell-based, HCV; conditions: Hepatitis C virus
How it was run: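 Renilla luciferase replicon assay: 1a Pi-RLuc replicon carrying NS5A Q30R, transfected transiently into cured-51 (Huh-7-derived) cells.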

[2] = system: stable HCV 1a RLuc replicon cells (genotype 1a H77 replicon); experiment: microbe, parasite or virus in culture; assay type: cell-based; conditions: Hepatitis C virus
[3] = system: stable HCV 1b RLuc replicon cells (genotype 1b Con1 replicon); experiment: microbe, parasite or virus in culture; assay type: cell-based; conditions: Hepatitis C virus, read-out: 1b (nM)
[4] = system: stable HCV 2a JFH-1 Rluc replicon cells (L31 present in NS5A); experiment: microbe, parasite or virus in culture; assay type: cell-based; conditions: Hepatitis C virus
[5] = system: NS5A chimeric genotype 2a JFH-1 replicon with genotype 2a J6 strain NS5A gene (M31 present); experiment: microbe, parasite or virus in culture; assay type: cell-based, HCV; conditions: Hepatitis C virus
[6] = system: NS5A chimeric genotype 1b Con1 replicon with genotype 3a S52 strain NS5A gene; experiment: microbe, parasite or virus in culture; assay type: cell-based, HCV; conditions: Hepatitis C virus
How it was run: (§1)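 Genotype 3a (S52) and 4a (ED43) NS5A chimeras use 1b Con1 Pi-RLuc replicons, transfected transiently; 2b MD2b-1 NS5A chimera (M31) uses 2a JFH-1 RLuc-Neo replicon, transient or stable.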

[7] = system: NS5A chimeric genotype 2a JFH-1 replicon with genotype 2b MD2b-1 strain NS5A gene (M31 present); experiment: microbe, parasite or virus in culture; assay type: cell-based, HCV; conditions: Hepatitis C virus
How it was run: as §1

[8] = IV and PO single dose pharmacokinetic studies in SD rats; assay type: in vivo; conditions: male, Sprague-Dawley, rat, plasma, IV infusion 1 mg/kg vs oral gavage 2 mg/kg, read-out: Rat % F

**Q.** Which EC50 ([1]; read-out: 1a Q30R) does the source give for `COC[C@H]1C[C@@H](c2ncc(-c3ccc4c(c3)COc3cc5c(ccc6nc([C@@H]7CC[C@H](C)N7C(=O)[C@@H](NC(=O)OC)C(C)C)[nH]c65)cc3-4)[nH]2)N(C(=O)[C@@H](NC(=O)OC)[C@H](C)OC)C1` [Example QA, Methyl {(2S)-1-[(2S,5S)-2-(9-{2-[(2S,4S)-1-{(2S,3S)-3-methoxy-2-[(methoxycarbonyl)amino]butanoyl}-4-(methoxymethyl)pyrrolidin-2-yl]-1H-imidazol-5-yl}-1,11-dihydroisochromeno[4′,3′:6,7]naphtho[1,2-d]imidazol-2-yl)-5-methylpyrrolidin-1-yl]-3-methyl-1-oxobutan-2-yl}carbamate] here?
**A.** < 1 nM

**Q.** What about the EC50 ([1]; read-out: 1a Q30R (nM)) of the same compound?
**A.** 0.045 nM

**Q.** What about the EC50 ([2]; read-out: 1a) of the same compound?
**A.** < 1 nM

**Q.** What about the EC50 ([2]; read-out: 1a (nM)) of the same compound?
**A.** 0.012 nM

**Q.** And the EC50 [3]?
**A.** 0.013 nM

**Q.** What about the EC50 ([4]; read-out: 2a JFH) of the same compound?
**A.** < 1 nM

**Q.** And the EC50 ([4]; read-out: 2a JFH (nM))?
**A.** 0.007 nM

**Q.** And the EC50 ([5]; read-out: 2a J6)?
**A.** < 1 nM

**Q.** What about the EC50 ([5]; read-out: 2a Jb (t) (nM)) of the same compound?
**A.** 0.094 nM

**Q.** What about the EC50 ([6]; read-out: 3a) of the same compound?
**A.** < 1 nM

**Q.** And the EC50 ([6]; read-out: 3a (nM))?
**A.** 0.038 nM

**Q.** And the EC50 ([7]; read-out: 2b)?
**A.** < 1 nM

**Q.** And the EC50 ([7]; read-out: 2b (s) (nM))?
**A.** 0.04 nM

**Q.** And the EC50 ([7]; read-out: 2b (t) (nM))?
**A.** 0.052 nM

**Q.** And the bioavailability [8]?
**A.** 7.46%
